According to ChEMBL document CHEMBL5154916, “Multiparameter Optimization of Naphthyridine Derivatives as Selective α5-GABAA Receptor Negative Allosteric Modulators” (J Med Chem, 2022):
Values after ≈ are worked out from the molar mass of the structure shown.

Key:
[1] = Bioavailability in female dog at 10 mg/kg, po or 3 mg/kg, iv by HPLC-MS/MS analysis; type: ADME, organism-based, Canis lupus familiaris; conditions: in vivo
Cytochrome P450 2C19 = Cytochrome P450 2C19 (Homo sapiens, UniProt P33261); test: Inhibition of CYP2C19 (unknown origin); type: ADME
Chain of Cytochrome P450 2C19 (P33261 whole entry): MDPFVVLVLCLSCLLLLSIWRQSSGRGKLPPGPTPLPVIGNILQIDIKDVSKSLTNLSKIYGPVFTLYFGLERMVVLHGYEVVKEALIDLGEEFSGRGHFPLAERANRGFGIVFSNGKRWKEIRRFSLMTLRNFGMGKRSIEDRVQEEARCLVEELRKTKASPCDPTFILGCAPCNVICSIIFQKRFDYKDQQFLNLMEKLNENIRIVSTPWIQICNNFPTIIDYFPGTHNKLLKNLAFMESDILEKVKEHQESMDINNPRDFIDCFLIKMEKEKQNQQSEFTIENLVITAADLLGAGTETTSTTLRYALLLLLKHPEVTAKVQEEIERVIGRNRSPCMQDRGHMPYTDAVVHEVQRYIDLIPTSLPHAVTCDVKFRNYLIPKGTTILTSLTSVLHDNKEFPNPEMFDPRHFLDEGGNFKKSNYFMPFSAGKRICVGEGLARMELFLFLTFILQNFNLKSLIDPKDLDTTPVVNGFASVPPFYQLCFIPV

Cytochrome P450 2D6 = Cytochrome P450 2D6 (Homo sapiens, UniProt P10635); test: Inhibition of CYP2D6 (unknown origin); type: ADME
Chain of Cytochrome P450 2D6 (P10635 whole entry): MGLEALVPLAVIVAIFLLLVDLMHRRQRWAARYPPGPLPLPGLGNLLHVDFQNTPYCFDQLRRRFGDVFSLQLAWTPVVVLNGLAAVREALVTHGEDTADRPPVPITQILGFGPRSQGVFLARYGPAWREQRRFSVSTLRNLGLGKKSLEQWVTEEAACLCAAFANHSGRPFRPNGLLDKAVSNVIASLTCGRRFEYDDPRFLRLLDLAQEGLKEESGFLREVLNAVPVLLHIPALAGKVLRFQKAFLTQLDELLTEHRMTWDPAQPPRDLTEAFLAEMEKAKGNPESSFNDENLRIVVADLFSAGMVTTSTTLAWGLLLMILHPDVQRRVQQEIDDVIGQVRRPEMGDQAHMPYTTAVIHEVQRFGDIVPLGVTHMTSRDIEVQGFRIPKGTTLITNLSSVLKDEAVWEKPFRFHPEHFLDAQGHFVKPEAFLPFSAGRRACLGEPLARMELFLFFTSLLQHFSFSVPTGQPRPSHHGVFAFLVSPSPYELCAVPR

[2] = Plasma protein binding in rat; type: ADME, cell-free; conditions: read-out: PPB (converted)
[3] = Thermodynamic solubility of the compound at pH 6.5; type: physicochemical; conditions: buffer, read-out: Therm_solubility
[4] = Metabolic stability in Wistar rat liver microsomes assessed as intrinsic clearance at 2.5 uM; type: ADME, Microsome; conditions: read-out: CLH
[5] = Plasma level ratio in Wistar rat assessed as ratio between plasma concentration in PCP-induced toxicity Wistar rat model to plasma concentration in pro-cognitive activity for subchronic PCP-induced cognitive impairment associated schizophrenia Wistar rat model
[6] = Metabolic stability in human hepatocyte assessed as intrinsic clearance measured per 10^6 cells; type: ADME, cell-based; conditions: hepatocytes, read-out: CLH
[7] = biological target: T1, GABA-A receptor; alpha-5/beta-3/gamma-2 (Homo sapiens, UniProt P18507+P28472+P31644); test: Displacement of [3H]Ro151788 from human recombinant alpha5beta3gamma2 GABAA receptor stably expressed in HEK293 cell membrane assessed as inhibition constant by radioligand binding assay; type: cell membranes
T1 sequence (P18507 whole entry): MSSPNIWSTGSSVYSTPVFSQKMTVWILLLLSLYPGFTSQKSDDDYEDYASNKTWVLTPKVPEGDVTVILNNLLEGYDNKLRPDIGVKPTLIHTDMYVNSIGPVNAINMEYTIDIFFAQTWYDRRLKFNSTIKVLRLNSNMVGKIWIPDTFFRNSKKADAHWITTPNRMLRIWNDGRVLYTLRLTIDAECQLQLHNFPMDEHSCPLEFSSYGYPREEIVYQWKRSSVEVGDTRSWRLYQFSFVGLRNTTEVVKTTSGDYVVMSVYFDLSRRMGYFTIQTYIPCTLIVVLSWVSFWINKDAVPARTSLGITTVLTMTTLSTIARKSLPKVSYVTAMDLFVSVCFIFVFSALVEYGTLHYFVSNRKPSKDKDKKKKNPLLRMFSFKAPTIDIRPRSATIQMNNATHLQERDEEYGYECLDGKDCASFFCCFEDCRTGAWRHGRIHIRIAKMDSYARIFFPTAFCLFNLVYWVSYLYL
T1 sequence (P28472 whole entry): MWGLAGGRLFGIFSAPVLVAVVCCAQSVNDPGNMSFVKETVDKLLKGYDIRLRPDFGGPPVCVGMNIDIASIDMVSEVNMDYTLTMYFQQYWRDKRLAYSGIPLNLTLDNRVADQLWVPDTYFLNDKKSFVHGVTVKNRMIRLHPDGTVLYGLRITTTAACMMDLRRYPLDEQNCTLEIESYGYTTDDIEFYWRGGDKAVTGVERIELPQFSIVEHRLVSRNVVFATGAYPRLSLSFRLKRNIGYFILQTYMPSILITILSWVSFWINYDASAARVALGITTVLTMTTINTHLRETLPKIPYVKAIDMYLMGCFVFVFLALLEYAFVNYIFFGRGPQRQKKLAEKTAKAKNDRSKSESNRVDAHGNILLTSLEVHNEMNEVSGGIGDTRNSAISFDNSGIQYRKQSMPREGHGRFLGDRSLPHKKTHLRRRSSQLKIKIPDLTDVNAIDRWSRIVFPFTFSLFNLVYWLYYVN
T1 sequence (P31644 whole entry): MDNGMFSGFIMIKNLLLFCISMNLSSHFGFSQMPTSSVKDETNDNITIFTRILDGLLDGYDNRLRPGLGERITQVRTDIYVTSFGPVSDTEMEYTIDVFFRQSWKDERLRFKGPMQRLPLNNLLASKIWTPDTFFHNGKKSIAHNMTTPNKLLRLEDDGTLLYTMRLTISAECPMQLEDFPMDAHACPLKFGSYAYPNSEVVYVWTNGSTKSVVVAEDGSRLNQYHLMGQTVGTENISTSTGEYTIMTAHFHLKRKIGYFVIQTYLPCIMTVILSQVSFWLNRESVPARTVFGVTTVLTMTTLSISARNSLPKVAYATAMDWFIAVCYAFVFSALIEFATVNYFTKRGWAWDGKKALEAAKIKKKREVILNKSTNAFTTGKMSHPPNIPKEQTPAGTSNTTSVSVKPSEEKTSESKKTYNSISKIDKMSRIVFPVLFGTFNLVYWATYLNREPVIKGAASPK

[8] = Thermodynamic solubility of the compound at pH 7.4; type: physicochemical; conditions: buffer, read-out: Therm_solubility
[9] = Toxicity in po dosed Wistar rat assessed NOAEL by 4 days toxicology study; type: organism-based; conditions: in vivo, time 4 day
[10] = Plasma protein binding in guinea pig; type: ADME, cell-free, Cavia porcellus; conditions: read-out: PPB (converted)
[11] = Bioavailability in Wistar rat at 1 mg/kg,po or 1 mg/kg, iv by HPLC-MS/MS analysis; type: ADME, organism-based; conditions: in vivo
Cytochrome P450 2C9 = Cytochrome P450 2C9 (Homo sapiens, UniProt P11712); test: Inhibition of CYP2C9 (unknown origin); type: ADME
Chain of Cytochrome P450 2C9 (P11712 whole entry): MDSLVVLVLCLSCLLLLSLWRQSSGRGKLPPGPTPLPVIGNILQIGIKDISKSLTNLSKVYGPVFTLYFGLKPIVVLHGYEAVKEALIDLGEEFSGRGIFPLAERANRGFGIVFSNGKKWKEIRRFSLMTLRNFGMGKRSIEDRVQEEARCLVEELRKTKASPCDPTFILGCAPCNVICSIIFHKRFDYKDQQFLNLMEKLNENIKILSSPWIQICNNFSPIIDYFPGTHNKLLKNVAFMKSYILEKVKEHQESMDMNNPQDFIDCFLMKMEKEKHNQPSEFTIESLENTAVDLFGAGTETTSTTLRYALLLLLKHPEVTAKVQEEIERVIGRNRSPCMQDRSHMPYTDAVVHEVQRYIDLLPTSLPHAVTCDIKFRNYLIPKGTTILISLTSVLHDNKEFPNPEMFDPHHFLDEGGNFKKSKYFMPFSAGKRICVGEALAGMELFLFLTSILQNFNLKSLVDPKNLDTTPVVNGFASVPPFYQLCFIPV

[12] = Clearance in Wistar rat plasma at 1 mg/kg, iv by HPLC-MS/MS analysis; type: ADME, organism-based
[13] = Metabolic stability in Wistar rat hepatocyte assessed as intrinsic clearance measured per 10^6 cells; type: ADME, cell-based; conditions: hepatocytes, read-out: CLH
[14] = […] in po dosed Wistar rat assessed as NED by Irwin test; type: organism-based; conditions: in vivo, read-out: ED
[15] = Ratio of drug level in brain to plasma in Wistar rat at 1 mg/kg, po or 1 mg/kg, iv by HPLC-MS/MS analysis; type: ADME, organism-based; conditions: brain and plasma, read-out: BPR
[16] = Apparent permeability in human Caco-2 cells at 1 uM by HPLC-UV analysis; type: ADME, cell-based
[17] = AUC (0 to infinity) in Wistar rat total plasma at 1 mg/kg, iv by HPLC-MS/MS analysis; type: ADME, organism-based; set-up: time infinity, dose 1 mg/kg, route iv
[18] = Plasma protein binding in dog; type: ADME, cell-free, Canis lupus familiaris; conditions: read-out: PPB (converted)
[19] = Free plasma concentration in subchronic PCP-induced cognitive impairment associated schizophrenia Wistar rat model at 10 mg/kg, po measured at 1.5 hr post dose by HPLC-MS/MS analysis; type: ADME, organism-based; conditions: in vivo
[20] = Half life in Wistar rat total plasma at 1 mg/kg, po by HPLC-MS/MS analysis; type: ADME, organism-based
[21] = Half life in Wistar rat total plasma at 1 mg/kg, iv by HPLC-MS/MS analysis; type: ADME, organism-based
[22] = Bioavailability in male dog at 10 mg/kg, po or 3 mg/kg, iv by HPLC-MS/MS analysis; type: ADME, organism-based, Canis lupus familiaris; conditions: in vivo
Rattus norvegicus = test: Pro-cognitive activity in po dosed subchronic PCP-induced cognitive impairment associated schizophrenia Wistar rat model assessed as reversal of PCP-induced cognitive deficit administered 30 mins prior to T1 phase by NOR test; type: functional; conditions: 0.5 h, read-out: MED
[23] = Ratio of drug level in brain to plasma in Wistar rat at 3 mg/kg, po measured at 1.5 hr post dose; type: ADME, organism-based; conditions: brain and plasma, read-out: BPR
[24] = Bioavailability in Wistar rat total plasma at 1 mg/kg, iv by HPLC-MS/MS analysis; type: ADME, organism-based
[25] = Thermodynamic solubility of the compound at pH 5; type: physicochemical; conditions: buffer, read-out: Therm_solubility

Cc1onc(-c2ccc(F)cc2)c1COc1ccc2c(n1)CCN(C(=O)CS(C)(=O)=O)C2
bioavailability [1]: 6.7%
IC50 (Cytochrome P450 2C19): 14.6 µM
IC50 (Cytochrome P450 2D6): > 50 µM
fraction unbound [2]: 0.04
solubility thermodynamic [3]: 9.8 µM (≈ 4.5 µg/mL)
microsomal CLint at 2.5 µM [4]: 29 µL/min/mg
Ratio [5]: 11
hepatocyte CLint [6]: 3 µL/min/1e6 cells
Ki [7]: 0.0041 µM
solubility thermodynamic [8]: 0.081 µM (≈ 0.0372 µg/mL)
NOAEL at 96 h [9]: ≥ 500 mg/kg
fraction unbound [10]: 0.023
bioavailability [11]: 35.8%
IC50 (Cytochrome P450 2C9): > 50 µM
clearance [12]: 41.3 mL/min/kg
hepatocyte CLint [13]: 19 µL/min/1e6 cells
NOAEL [14]: ≥ 300 mg/kg
Kp [15]: 0.54
Papp at 1 µM [16]: 43 ×10⁻⁶ cm/s
AUC(0-inf) [17]: 407 ng·h/mL
fraction unbound [18]: 0.05
Cp(f) [19]: 6.9 nM
half-life [20]: 70.2 min
half-life [21]: 31.8 min
bioavailability [22]: 12.6%
minimal effective dose (Rattus norvegicus): 3 mg/kg
Kp at 1.5 h [23]: 6.3
bioavailability [24]: 35.8%
solubility thermodynamic [25]: 142 µM (≈ 65.2 µg/mL)
